Tests used:
[1] = target: T1, GDP-loaded KRAS4b (amino acids 1-169) G12C/C118S protein (Homo sapiens, UniProt P01116, C118S/G12C); assay: Covalent cysteine 12 modification by MALDI-TOF MS, GDP-loaded KRAS G12C; format: binding; settings: 15 minutes reaction time point
T1 construct: KRAS4b (amino acids 1-169) G12C/C118S protein; made in house
Procedure: (§1) Biological Example 1: Covalent Cysteine 12 Modification Analysis Using Matrix Assisted Laser Desorption Ionization-Time of Flight Mass Spectrometry (MALDI-TOF MS)
(§2) MALDI-TOF MS analysis was performed using 1 μM protein (KRAS G12C), and 1:2.5 protein to compound ratio.
(§3) Reaction: 1 μM of GppNHp, GTP, or GDP-loaded KRAS4b (amino acids 1-169) G12C/C118S protein (produced in-house by Protein Expression Laboratory, FNLCR/Leidos Biomed) in 20 mM 4-(2-hydroxyethyl)-1-piperazineethanesulfonic acid (HEPES) buffer containing 150 mM NaCl, 1 mM MgCl2, pH 7.3 was prepared freshly before assay. Twelve-μL aliquots of protein were dispensed onto low volume 384-well plate, then 30 nL of tested compounds from 1 mM DMSO stocks were added to appropriate wells using ECHO 555 acoustic liquid handler (Labcyte Inc.). For each reaction/assay, three blanks were prepared by mixing 12 μL of protein solution with 30 nL DMSO. The contents of the wells were carefully mixed by aspiration, and then each plate was sealed with an adhesive cover, centrifuged at 2000 g for 1 minute, and kept in the dark at room temperature until 5 min, 15 min, 30 min, 2 h, or 6 h collections.
(§4) Target pretreatment: Before each assay MALDI target (Bruker MPT 384 ground steel BC) was pre-treated by pipetting on each spot 0.75 μL of saturated sinapinic acid in acetonitrile (ACN).
(§5) Sample preparation: At collection time point, 2 μL of reaction mixtures were pipetted out into 15 μL MALDI matrix solution (saturated solution of sinapinic acid in 1:1 ACN:water solution containing 0.75% trifluoroacetic acid (TFA)) deposited on 384 well polypropylene plate. Resulting solution was mixed by aspiration, centrifuged at 2000 g for 1 minute, then 1.5 μL aliquots were dispensed on pre-treated MALDI target using Beckman Coulter Biomek FXP 96/384-Span-8 Laboratory Automation Workstation. Finally, the MALDI target was dried under mild vacuum to produce spots with fine crystalline structure.
(§6) Measurements: MALDI-TOF measurements were performed on a Bruker Daltonics rapiflex Tissuetyper TOF-TOF mass spectrometer using linear mode and mass range from 18.6 to 21.6 kDa. Detector gain was set to 3.3×(483 V), sample rate to 5 GS/s, real time smoothing to medium (175 MHz), laser smart beam pattern was set to: “MS Thin Layer M5”, and the laser frequency was 10000 Hz. Spectra were automatically collected using custom AutoXecute method. Laser power was auto adjusted using fuzzy control. The peak selection range was set to be between 19000 and 21500 Da. Peak evaluation uses half width parameter set to be smaller than 40 Da for processed spectrograms (centroid peak detection; smoothed by SavitzkyGolay algorithm using 7 m/z width and 2 cycles; baseline was subtracted using median algorithm with flatness 1 and median level 0.01). Fuzzy control used Proteins/Oligonucleotides protocol with minimum half width 1/10 times above threshold. Up to 40000 satisfactory shots were collected in 10000 shot steps. Dynamic termination was implemented to finish data collection when peak signal/noise ratio was reaching value of 50.
(§7) Spectra processing: Spectra were smoothed by SavitzkyGolay algorithm using 7 m/z width and three cycles. Centroid peak detection algorithm was used with signal to noise threshold set to 6, relative intensity threshold 4%, peak width 10 m/z and median baseline subtraction using flatness of 1 and median level of 0.01. Peak intensity and area under the peak were evaluated and recorded for all peaks between 19,300 Da and 21,550 Da.
(§8) Calculation of percent modification: Percent modification was calculated as a ratio of peak height for protein modified by compound to sum of peak height of remaining protein plus peak height for protein modified by compound. If multiple modifications were observed each was calculated as a ratio of peak height for given modification versus sum of peak heights for all observed protein species. Data reported in Table 4 are from 15 minutes reaction time point. […]

pERK in NCI-H358 cells = assay: Cell-based pERK HTRF assay (pERK inhibition in H358 cells); settings: Homo sapiens, NCI-H358, 0.5 h, 30 min incubation
Procedure: Biological Example 3: Cell-Based pERK HTRF Assay
pERK assays (Perkin Elmer) were used to determine the effectiveness of compounds of the present disclosure in disrupting KRAS G12C protein/effector signaling in cells.
On Day 1, cells (NCI-H358) were seeded into 96-well plates at 4×10^4 cells/well in complete growth media (RPMI, 10% FBS).
On Day 2, cells were treated with compounds at 0.25% DMSO. The source plate was created with compounds diluted in media at 5-fold the final assay concentration. The compounds were run in a 9-point concentration curve starting at 75 μM, with a 3-fold dilution between concentrations. 20 μL was transferred onto the cell plates (final volume in wells was 100 μL). Plates were harvested after 30 min incubation by aspirating media and adding kit-supplied 1× supplemented lysis buffer to all wells (75 μl per well). Plates were then placed on a plate shaker and incubated at 850 rpm for an additional 30 min.
Antibody mixture solution was prepared by diluting aliquoted d2 and Eu Cryptate antibodies 1:20 in kit supplied detection buffer, then mixed the diluted antibodies solutions (1:1 v:v). 4 μL of this solution was then added to a 384-well detection plate (Perkin Elmer; 6008230).
Samples were homogenized by pipetting up and down and then transferred (16 μL of cell lysates) from the 96-well cell culture plate to two wells of the HTRF 384-well detection plate containing the antibody solution. Plates were centrifuged (524 g for […]) and allowed to incubate between 4 and 24 h at room temperature. Maximum signal is reached after 4 h incubation time and remains stable over a period of 24 hours. Therefore, readings can be made between 4 and 24 h of incubation. Plates were centrifuged again (524 g for 1 min), and analyzed on the En Vision plate reader using the following settings: Excitation 320 nm, Bandwidth 75 nm; Emission 615 nm, Bandwidth 85 nm; Gain 100%; Flashes 100; Lag 60 μs.
The percent of modification of GppNHp, GTP, or GDP loaded KRAS G12C by MALDI-TOF MS, biochemical Raf1 RBD-KRAS G12C-GppNHp disruption assay IC50, and pERK inhibition IC50 of selected compounds described herein are shown in Table 4. For percent of modification at 15 minutes (MALDI-TOF MS) of GppNHp, GTP, or GDP loaded KRAS G12C: A: percent of modification ≥70%; B: 50≤percent of modification <70%; C: 10%≤percent of modification <50%; D: percent of modification <10%. […] For pERK inhibition in H358 cell assay: A: IC50≤0.1 μM; B: 0.1 μM<IC50≤1 μM; C: IC50>1 μM. Blanks in the table represent that compound was not tested in the indicated assay.

[2] = target: T2, GppNHp-loaded KRAS4b (amino acids 1-169) G12C/C118S protein (Homo sapiens, UniProt P01116, C118S/G12C); assay: Covalent cysteine 12 modification by MALDI-TOF MS, GppNHp-loaded KRAS G12C; format: binding; settings: 15 minutes reaction time point
T2 construct: KRAS4b (amino acids 1-169) G12C/C118S protein; made in house
Procedure: as §1, §2, §3, §4, §5, §6, §7, §8

[3] = target: T3, GTP-loaded KRAS4b (amino acids 1-169) G12C/C118S protein (Homo sapiens, UniProt P01116, C118S/G12C); assay: Covalent cysteine 12 modification by MALDI-TOF MS, GTP-loaded KRAS G12C; format: binding; settings: 15 minutes reaction time point
T3 construct: KRAS4b (amino acids 1-169) G12C/C118S protein; made in house
Procedure: as §1, §2, §3, §4, §5, §6, §7, §8

Structure (SMILES)	GDP-KRAS G12C percent of modification [1]	IC50 (pERK in NCI-H358 cells) [nM]	GppNHp-KRAS G12C percent of modification [2]	GTP-KRAS G12C percent of modification [3]
C[C@@H]1CN(c2nc(OC[C@@]34CCCN3C[C@H](F)C4)nc3c(F)c(-c4ccc(F)c5sc(N)c(C#N)c45)c(C(F)(F)F)cc23)[C@@H](C)CN1C(=O)[C@H](F)Cl [Compound 181]	D (percent of modification <10%)	100 to 1000	D (percent of modification <10%)	D (percent of modification <10%)
C[C@@H]1[C@H](N(C)c2nc(OC[C@@]34CCCN3C[C@H](F)C4)nc3c(F)c(-c4ccc(F)c5sc(N)c(C#N)c45)c(C(F)(F)F)cc23)CCN1C(=O)/C=C/c1nc(C(C)(F)F)no1 [Compound 188, 2-amino-4-(4-(((2R,3R)-1-((E)-3-(3-(1,1-difluoroethyl)-1,2,4-oxadiazol-5-yl)acryloyl)-2-methylpyrrolidin-3-yl)(methyl)amino)-8-fluoro-2-(((2R,7aS)-2-fluorotetrahydro-1H-pyrrolizin-7a(5H)-yl)methoxy)-6-(trifluoromethyl)quinazolin-7-yl)-7-fluorobenzo[b]thiophene-3-carbonitrile]	B (50≤percent of modification <70%)	< 100	B (50≤percent of modification <70%)	C (10%≤percent of modification <50%)
C=CC(=O)N1CC[C@@H](N(C)c2nc(O[C@@H](C)[C@@H]3CC(=C(F)F)CN3C)nc3c(F)c(-c4ccc(F)c5sc(N)c(C#N)c45)c(C(F)(F)F)cc23)[C@H]1C [Compound 204]	C (10%≤percent of modification <50%)	100 to 1000	C (10%≤percent of modification <50%)	C (10%≤percent of modification <50%)
C=CC(=O)N1CC[C@@H](N(CC)c2nc(OC[C@@]34CCCN3C[C@H](F)C4)nc3cc(-c4ccc(F)c5sc(N)c(C#N)c45)c(F)cc23)[C@H]1C [Compound 21, 4-(4-(((2R,3R)-1-acryloyl-2-methylpyrrolidin-3-yl)(ethyl)amino)-6-fluoro-2-(((2R,7aS)-2-fluorotetrahydro-1H-pyrrolizin-7a(5H)-yl)methoxy)quinazolin-7-yl)-2-amino-7-fluorobenzo[b]thiophene-3-carbonitrile]	A (percent of modification ≥70%)	–	A (percent of modification ≥70%)	A (percent of modification ≥70%)
C=CC(=O)N1CC[C@@H](N(C)c2nc(OC[C@@H]3CC(=C(F)F)CN3C)nc3c(F)c(-c4ccc(F)c5sc(N)c(C#N)c45)c(C(F)(F)F)cc23)[C@H]1C [Compound 205]	C (10%≤percent of modification <50%)	< 100	B (50≤percent of modification <70%)	C (10%≤percent of modification <50%)
C=CC(=O)N1CC[C@@H](N(CC)c2nc(OC[C@@]34CCCN3C[C@H](F)C4)nc3c(F)c(-c4ccc(F)c5sc(N)c(C#N)c45)c(Cl)cc23)[C@H]1C [Compound 85]	–	< 100	A (percent of modification ≥70%)	B (50≤percent of modification <70%)
C=CC(=O)N1CC[C@@H](N(C)c2nc(OC[C@@]34CCCN3C[C@H](F)C4)nc3c(F)c(-c4ccc(F)c5sc(N)c(C#N)c45)c(C(F)(F)F)cc23)[C@@H]1C (atropisomer, axis not shown) [Compound 70]	A (percent of modification ≥70%)	–	A (percent of modification ≥70%)	A (percent of modification ≥70%)
C=CC(=O)N1CC[C@@H](N(C)c2nc(OC[C@@]34CCCN3C[C@H](F)C4)nc3c(F)c(-c4ccc(F)c5sc(N)c(C#N)c45)c(Cl)cc23)[C@H]1C (atropisomer, axis not shown) [Compound 51]	–	–	A (percent of modification ≥70%)	A (percent of modification ≥70%)
C=CC(=O)N1C[C@H](C)N(c2nc(OC[C@]34CCCN3C[C@@H](F)C4)nc3c(F)c(-c4ccc(F)c5sc(N)c(C#N)c45)c(C(F)(F)F)cc23)C[C@H]1C [Compound 26]	C (10%≤percent of modification <50%)	–	B (50≤percent of modification <70%)	–
C=CC(=O)N1CC[C@@H](N(C)c2nc(O[C@@H](C)[C@@H]3C[C@@H](OC)CN3C)nc3c(F)c(-c4ccc(F)c5sc(N)c(C#N)c45)c(C(F)(F)F)cc23)[C@H]1C [Compound 192]	A (percent of modification ≥70%)	–	A (percent of modification ≥70%)	A (percent of modification ≥70%)
C=CC(=O)N1CC[C@@H](N(C)c2nc(OC[C@@]34CCCN3C[C@H](F)C4)nc3c(F)c(-c4ccc(F)c5sc(N)c(C#N)c45)ccc23)[C@H]1C [Compound 13]	A (percent of modification ≥70%)	–	A (percent of modification ≥70%)	A (percent of modification ≥70%)
